Results on two substances are retold here after US7045343B2, “Sterilization indicator test packs” (3M Innovative Properties Company, priority 1998, dated 2006).

The test concerns Bacillus stearothermophilus spores. The test can be described thus: Spore outgrowth (color change) of indicators after hydrogen peroxide plasma sterilization. It counts as cell-based. As to conditions: 1–22 min diffusion. The essentials:
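Indicators with a TYVEK closure held spores coated with various chemicals and were exposed to hydrogen peroxide plasma at 45–55 °C: 6–7 mg/ml chamber peroxide, diffusing 1–22 min at 6–10 Torr. Enzyme fluorescence was read hourly for 5 h at 60 °C. Growth was scored visually as a purple-to-yellow change after 168 h.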

As to Decaglyceryl Decaoleate, the “NO. GROWTH POSITIVE 168 HR” value is listed as 49 (Example 6, 10 mg/ml coating); 49 (Example 7, 10 mg/ml coating); 35 (Example 9, 5 mg/ml coating); 35 (Example 9, 7.5 mg/ml coating); 49 (Example 9, 10 mg/ml coating); 21 (Example 9, 50 mg/ml coating). The “NO. GROWTH POSITIVE 168 HR” value (Example 9, 100 mg/ml coating) was found to be 30.
Regarding Decaglyceryl Monostearate, the “NO. GROWTH POSITIVE 168 HR” value (Example 7, 50 mg/ml coating) is listed as 59.
